Read-outs that look alike come from different tables or passages of the source.

For one test, the target named is human dOR (Homo sapiens (Human), UniProt P41143). Briefly: cell-based. Particulars: dOR cAMP Agonist Assay EC50, CHO Tag-lite human dOR stable cell line; forskolin.
Another test concerns the target human mOR (Homo sapiens (Human), UniProt P35372). Briefly: cell-based.
Where [1] appears, read: CHO Tag-lite human mOR stable cell line, forskolin 4 μM and DAMGO at EC90, read-out: mOR cAMP Antagonist Assay IC50.

Chain of human mOR (P35372 whole entry): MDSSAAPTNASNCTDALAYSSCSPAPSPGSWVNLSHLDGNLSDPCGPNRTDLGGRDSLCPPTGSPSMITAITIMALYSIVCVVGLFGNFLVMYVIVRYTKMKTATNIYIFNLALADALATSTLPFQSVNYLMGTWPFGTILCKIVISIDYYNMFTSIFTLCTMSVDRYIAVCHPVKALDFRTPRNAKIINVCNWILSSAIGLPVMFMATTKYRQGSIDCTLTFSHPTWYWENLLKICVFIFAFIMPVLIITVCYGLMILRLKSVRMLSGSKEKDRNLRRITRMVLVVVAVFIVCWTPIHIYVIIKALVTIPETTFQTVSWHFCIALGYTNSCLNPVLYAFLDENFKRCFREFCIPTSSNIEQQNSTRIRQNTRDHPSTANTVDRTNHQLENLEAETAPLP
Chain of human dOR (P41143 whole entry): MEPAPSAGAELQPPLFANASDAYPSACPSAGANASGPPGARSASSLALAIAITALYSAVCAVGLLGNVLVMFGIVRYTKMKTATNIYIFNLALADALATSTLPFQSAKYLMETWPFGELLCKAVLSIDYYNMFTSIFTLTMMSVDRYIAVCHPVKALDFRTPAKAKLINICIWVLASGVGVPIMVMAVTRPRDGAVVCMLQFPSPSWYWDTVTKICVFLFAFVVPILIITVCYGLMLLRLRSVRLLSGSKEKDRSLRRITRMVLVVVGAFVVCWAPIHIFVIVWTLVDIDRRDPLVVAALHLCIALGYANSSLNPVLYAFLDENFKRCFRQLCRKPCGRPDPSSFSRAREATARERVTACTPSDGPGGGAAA

Take `CNC(=O)c1cc(C)c(C[C@@H](CNC(=O)C[C@@H](c2ccccc2)C(C)(C)C)N(C)C)cc1F` [Compound 146, 4-((S)-3-((R)-4,4-dimethyl-3-phenylpentanamido)-2-(dimethylamino)propyl)-2-fluoro-N,5-dimethylbenzamide]: the EC50 on human dOR was above 3 µM. The IC50 on human mOR was below 300 nM.
On the same counts, the results for `CNC(=O)c1ccc(C[C@@H](CNC(=O)C[C@@H](CC(C)C)c2ccccc2)N(C)C)cc1Cl` [Compound 147, 2-chloro-4-((S)-2-(dimethylamino)-3-((R)-5-methyl-3-phenylhexanamido)propyl)-N-methylbenzamide] are below 0.3 µM and below 300 nM.
Take `CNC(=O)c1ccc(C[C@@H](CNC(=O)C[C@H](c2ccccc2)C(C)C)N(C)C)cc1Cl` [Compound 148, 2-chloro-4-((S)-2-(dimethylamino)-3-((S)-4-methyl-3-phenylpentanamido)propyl)-N-methylbenzamide]: the EC50 at human dOR is 0.3 to 3 µM. Further, on human mOR, the concentration for half-maximal inhibition (IC50) is 300 to 3000 nM.
On the same counts, the results for `CNC(=O)c1ccc(C[C@@H](CNC(=O)C[C@H](c2ccccc2)C(C)(C)C)N(C)C)cc1Cl` [Compound 150, 2-chloro-4-((S)-3-((S)-4,4-dimethyl-3-phenylpentanamido)-2-(dimethylamino)propyl)-N-methylbenzamide] are above 3 µM and below 300 nM.
Consider `CNC(=O)c1ccc(C[C@@H](CNC(=O)C[C@@H](C)c2ccc(Cl)cc2)N(C)C)cc1F` [Compound 155, 4-((S)-3-((R)-3-(4-chlorophenyl)butanamido)-2-(dimethylamino)propyl)-2-fluoro-N-methylbenzamide], for which, on human dOR, the concentration giving a half-maximal response (EC50) was below 0.3 µM. In addition, the 50% inhibitory concentration (IC50) on human mOR (setting [1]) is below 300 nM.
In the case of `CNC(=O)c1ccc(C[C@@H](CNC(=O)C[C@H](C)c2ccc(Cl)cc2)N(C)C)cc1F` [Compound 156, 4-((S)-3-((S)-3-(4-chlorophenyl)butanamido)-2-(dimethylamino)propyl)-2-fluoro-N-methylbenzamide], the EC50 on human dOR lay within 0.3 to 3 µM. Also, the IC50 on human mOR (setting [1]) was below 300 nM.
For the molecule `CNC(=O)c1ccc(C[C@@H](CNC(=O)C[C@H](c2ccccc2)C(C)(C)C)N2CCCC2)cc1F` [Compound 157, 4-((S)-3-((S)-4,4-dimethyl-3-phenylpentanamido)-2-(pyrrolidin-1-yl)propyl)-2-fluoro-N-methylbenzamide], on human dOR, the EC50 is above 3 µM. For the same molecule, the concentration for half-maximal inhibition (IC50) on human mOR was below 300 nM.
For the molecule `CNC(=O)c1ccc(C[C@@H](CNC(=O)C[C@H](c2ccccc2)C(C)(C)C)N(C)C)cc1F` [Compound 158, 4-((S)-3-((S)-4,4-dimethyl-3-phenylpentanamido)-2-(dimethylamino)propyl)-2-fluoro-N-methylbenzamide], the EC50 at human dOR was above 3 µM. The IC50 on human mOR is below 300 nM.
In the case of `CNC(=O)c1ccc(C[C@@H](CNC(=O)C[C@@H](c2ccccc2)C(C)(C)C)N(C)C)cc1F` [Compound 159, 4-((S)-3-((R)-4,4-dimethyl-3-phenylpentanamido)-2-(dimethylamino)propyl)-2-fluoro-N-methylbenzamide], at human dOR, the EC50 was 0.3 to 3 µM. Moreover, the IC50 at human mOR was below 300 nM.
On the same counts, the results for `CNC(=O)c1ccc(C[C@@H](CNC(=O)C[C@@H](CC(C)C)c2ccccc2)N(C)C)cc1F` [Compound 160, 4-((S)-2-(dimethylamino)-3-((R)-5-methyl-3-phenylhexanamido)propyl)-2-fluoro-N-methylbenzamide] are below 0.3 µM and below 300 nM.
With `CNC(=O)c1ccc(C[C@@H](CNC(=O)C[C@@H](c2ccccc2)C(C)C)N(C)C)cc1F` [Compound 162, 4-((S)-2-(dimethylamino)-3-((R)-4-methyl-3-phenylpentanamido)propyl)-2-fluoro-N-methylbenzamide], the EC50 on human dOR was 0.3 to 3 µM. The IC50 on human mOR is below 300 nM.
As for `CNC(=O)c1ccc(C[C@@H](CNC(=O)C[C@H](C)c2ccccn2)N(C)C)cc1F` [Compound 163, 4-((S)-2-(dimethylamino)-3-((S)-3-(pyridin-2-yl)butanamido)propyl)-2-fluoro-N-methylbenzamide], the EC50 on human dOR was above 3 µM. In addition, at human mOR, the IC50 is below 300 nM.
The like results for `CNC(=O)c1ccc2c(c1)CN(C)[C@H](CNC(=O)C[C@H](c1ccccc1)C(C)(C)C)C2` [Compound 168, (S)-3-(((S)-4,4-dimethyl-3-phenylpentanamido)methyl)-N,2-dimethyl-1,2,3,4-tetrahydroisoquinoline-7-carboxamide] were, in that order, above 3 µM and 300 to 3000 nM.
For the molecule `CC(C)C[C@@H](CC(=O)NC[C@H](Cc1ccc2[nH]c(=O)oc2c1)N(C)C)c1ccccc1` [Compound 172, (3S)-N-[(2S)-2-(dimethylamino)-3-(2-oxo-2,3-dihydro-1,3-benzoxazol-6-yl)propyl]-5-methyl-3-phenylhexanamide], the EC50 at human dOR is below 0.3 µM. For the same molecule, the IC50 on human mOR is below 300 nM.
The like results for `CC(C)[C@@H](CC(=O)NC[C@H](Cc1ccc2[nH]c(=O)oc2c1)N(C)C)c1ccccc1` [Compound 173, (R)-N-((S)-2-(dimethylamino)-3-(2-oxo-2,3-dihydrobenzo[d]oxazol-6-yl)propyl)-4-methyl-3-phenylpentanamide] were, in that order, below 0.3 µM and below 300 nM.
On to `CCCC[C@@H](CC(=O)NC[C@H](Cc1ccc2[nH]c(=O)oc2c1)N(C)C)c1ccccc1` [Compound 174], for which the EC50 at human dOR was below 0.3 µM. Also, the IC50 at human mOR was below 300 nM.
In the case of `CN(C)[C@H](CNC(=O)C[C@H](c1ccccc1)C1CC1)Cc1ccc2[nH]c(=O)oc2c1` [Compound 177, (S)-3-cyclopropyl-N-((S)-2-(dimethylamino)-3-(2-oxo-2,3-dihydrobenzo[d]oxazol-6-yl)propyl)-3-phenylpropanamide], the EC50 on human dOR lay in the range of 0.3 to 3 µM. Besides, at human mOR, the IC50 is below 300 nM.
On the same counts, the results for `CN(C)[C@H](CNC(=O)C[C@@H](c1ccccc1)C1CC1)Cc1ccc2[nH]c(=O)oc2c1` [Compound 178, (R)-3-cyclopropyl-N-((S)-2-(dimethylamino)-3-(2-oxo-2,3-dihydrobenzo[d]oxazol-6-yl)propyl)-3-phenylpropanamide] are 0.3 to 3 µM and below 300 nM.
Take `CC(C)[C@@H](CC(=O)NC[C@H](Cc1ccc2c(c1)CC(=O)N2)N(C)C)c1ccccc1` [Compound 182, (R)-N-((S)-2-(dimethylamino)-3-(2-oxoindolin-5-yl)propyl)-4-methyl-3-phenylpentanamide]: the concentration giving a half-maximal response (EC50) on human dOR was above 3 µM. Also, on human mOR (setting [1]), the IC50 is above 3000 nM.
In the case of `CC(C)C[C@@H](CC(=O)NC[C@H](Cc1ccc2c(c1)CC(=O)N2)N(C)C)c1ccccc1` [Compound 183, (S)-N-((S)-2-(dimethylamino)-3-(2-oxoindolin-5-yl)propyl)-5-methyl-3-phenylhexanamide], the EC50 on human dOR is above 3 µM. The 50% inhibitory concentration (IC50) on human mOR is below 300 nM.
The like results for `CN(C)[C@H](CNC(=O)C[C@@H](c1ccccc1)C1CC1)Cc1ccc2c(c1)CC(=O)N2` [Compound 186, (R)-3-cyclopropyl-N-((S)-2-(dimethylamino)-3-(2-oxoindolin-5-yl)propyl)-3-phenylpropanamide] were, in that order, 0.3 to 3 µM and below 300 nM.
Turning to `C[C@@H](CC(=O)NC[C@H](Cc1ccc2c(c1)OCC(=O)N2)N(C)C)c1ccccc1` [Compound 187, (S)-N-((S)-2-(dimethylamino)-3-(3-oxo-3,4-dihydro-2H-benzo[b][1,4]oxazin-7-yl)propyl)-3-phenylbutanamide], the EC50 on human dOR is below 0.3 µM. Also, the IC50 at human mOR was below 300 nM.
As to `CC(C)C[C@@H](CC(=O)NC[C@H](Cc1ccc2[nH]ncc2c1)N(C)C)c1ccccc1` [Compound 214, (S)-N-((S)-2-(dimethylamino)-3-(1H-indazol-5-yl)propyl)-5-methyl-3-phenylhexanamide], the EC50 on human dOR was below 0.3 µM. Further, the IC50 at human mOR (setting [1]) is below 300 nM.
With `C[C@H](CC(=O)NC[C@H](Cc1ccc2[nH]ncc2c1)N(C)C)c1cccc(F)c1` [Compound 215, (R)-N-((S)-2-(dimethylamino)-3-(1H-indazol-5-yl)propyl)-3-(3-fluorophenyl)butanamide], on human dOR, the EC50 was in the range of 0.3 to 3 µM. The IC50 on human mOR (setting [1]) is below 300 nM.
In the case of `C[C@@H](CC(=O)NC[C@H](Cc1ccc2[nH]ncc2c1)N(C)C)c1ccccn1` [Compound 216, (S)-N-((S)-2-(dimethylamino)-3-(1H-indazol-5-yl)propyl)-3-(pyridin-2-yl)butanamide], the EC50 at human dOR lay within 0.3 to 3 µM. In addition, on human mOR (setting [1]), the IC50 was below 300 nM.
As to `Cc1ccc([C@@H](C)CC(=O)NC[C@H](Cc2ccc3[nH]ncc3c2)N(C)C)cc1` [Compound 217, (S)-N-((S)-2-(dimethylamino)-3-(1H-indazol-5-yl)propyl)-3-(p-tolyl)butanamide], the EC50 on human dOR lay in the range of 0.3 to 3 µM. The concentration for half-maximal inhibition (IC50) on human mOR (setting [1]) is below 300 nM.
As for `C[C@@H](CC(=O)NC[C@H](Cc1ccc2[nH]ncc2c1)N(C)C)c1ccc(F)cc1` [Compound 218, (S)-N-((S)-2-(dimethylamino)-3-(1H-indazol-5-yl)propyl)-3-(4-fluorophenyl)butanamide], on human dOR, the concentration giving a half-maximal response (EC50) was above 3 µM. Moreover, the half-inhibitory concentration (IC50) at human mOR was below 300 nM.
Consider `CC(C)[C@@H](CC(=O)NC[C@H](Cc1ccc2[nH]ncc2c1)N(C)C)c1ccccc1` [Compound 219, (R)-N-((S)-2-(dimethylamino)-3-(1H-indazol-5-yl)propyl)-4-methyl-3-phenylpentanamide], for which the EC50 at human dOR fell in the range of 0.3 to 3 µM. The IC50 on human mOR (setting [1]) is below 300 nM.
`C[C@@H](CC(=O)NC[C@H](Cc1ccc2[nH]ncc2c1)N(C)C)c1ccc(Cl)cc1` [Compound 220, (S)-3-(4-chlorophenyl)-N-((S)-2-(dimethylamino)-3-(1H-indazol-5-yl)propyl)butanamide]: on human dOR, the EC50 is above 3 µM. Further, the IC50 on human mOR was below 300 nM.
Turning to `CN(C)[C@H](CNC(=O)CC(C)(C)c1ccccc1)Cc1ccc2[nH]ncc2c1` [Compound 221, (S)-N-(2-(dimethylamino)-3-(1H-indazol-5-yl)propyl)-3-methyl-3-phenylbutanamide], at human dOR, the EC50 is above 3 µM. The 50% inhibitory concentration (IC50) at human mOR was below 300 nM.
